The record followed here is patent US6664231B1, “Anti-fungal peptides” (priority 1993, dated 2003).

Square brackets hold non-standard residues; d marks the D form. Ends that are not written are not given here. Peptide text beside a SMILES is read from it. Phe(4-NH2) = Nc1ccc(C[C@H](N)C(=O)O)cc1; 1Nal = N[C@@H](Cc1cccc2ccccc12)C(=O)O; 2Nal = N[C@@H](Cc1ccc2ccccc2c1)C(=O)O; d2Nal = N[C@H](Cc1ccc2ccccc2c1)C(=O)O; pGlu = O=C1CC[C@@H](C(=O)O)N1; Dab = NCC[C@H](N)C(=O)O Some results are limits rather than exact numbers.

The assay has as its system C. albicans (CA-1, Strain SLU-1). Kind of assay: Radial diffusion assay. Format: cell-based, Candida albicans. The settings on record: for C. albicans pmol/30 mm^2 zone: pmoles of peptide added to well to achieve a 30 mm^2 zone, PROBIT analysis, crude or purified (P′) peptide; for Plate Assay (nmol), crude peptide activity / Plate Assay (nmol), pure peptide activity: nanomoles required to achieve a net 30 mm^2 zone (log titration curve); for Plate Assay (nmol), pure peptide activity: HPLC-purified peptide. Put shortly: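 Peptides, serially diluted 2-fold in D-PBS (top ~1 mg/mL), diffused 3 h at 37° C into pH 7.4 phosphate-buffered agarose seeded with 1×10^6 CFU/mL yeast, before overnight growth under a 6% Sabouraud overlayer. Net inhibition zones measured after Coomassie staining; PROBIT fit of log pmol vs area gave pmol for 30 mm^2.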

Take `CC[C@H](C)[C@H](NC(=O)[C@H](CC(C)C)NC(=O)[C@H](Cc1c[nH]c2ccccc12)NC(=O)CNC(=O)[C@@H](NC(=O)[C@H](CCCCN)NC(=O)[C@H](CO)NC(=O)[C@@H](N)CCCCN)C(C)C)C(=O)N[C@@H](CCC(N)=O)C(=O)N[C@@H](Cc1cccc2ccccc12)C(=O)N[C@@H](Cc1c[nH]c2ccccc12)C(=O)N[C@@H](Cc1c[nH]cn1)C(=O)N[C@@H](CCCCN)C(=O)N[C@@H](CCCCN)C(N)=O` [XMP.237] (H-KSKVGWLIQ[1Nal]WHKK-NH2): the “C. albicans pmol/30 mm^2 zone” value is >2,777 pmol/30 mm^2 zone. Regarding `CC[C@H](C)[C@H](NC(=O)[C@H](CC(C)C)NC(=O)[C@@H](Cc1ccc2ccccc2c1)NC(=O)CNC(=O)[C@@H](NC(=O)[C@H](CCCCN)NC(=O)[C@H](CO)NC(=O)[C@@H](N)CCCCN)C(C)C)C(=O)N[C@@H](CCC(N)=O)C(=O)N[C@@H](CC(C)C)C(=O)N[C@@H](Cc1ccccc1)C(=O)N[C@@H](Cc1c[nH]cn1)C(=O)N[C@@H](CCCCN)C(=O)N[C@@H](CCCCN)C(N)=O` [XMP.131] (H-KSKVG[d2Nal]LIQLFHKK-NH2), the “C. albicans pmol/30 mm^2 zone” value stood at 2493 pmol/30 mm^2 zone. On to H-KVKWLIQ-NH2 [Peptide 306], for which the “Plate Assay (nmol), crude peptide activity” value is above 10.485 nmol. On to H-KSKVKWAIQLFHKK-NH2 [XMP.267], for which the “C. albicans pmol/30 mm^2 zone” value came to 256 pmol/30 mm^2 zone. Besides, the “C. albicans pmol/30 mm^2 zone” value (listed as XMP.267P′) turned out to be 106 pmol/30 mm^2 zone. Take H-KSKVGWLILLWHKK-NH2 [XMP.241]: the “C. albicans pmol/30 mm^2 zone” value is >2,161 pmol/30 mm^2 zone. Same read-out and setting: the same measure for `CC[C@H](C)[C@H](NC(=O)[C@H](CC(C)C)NC(=O)[C@H](Cc1c[nH]c2ccccc12)NC(=O)CNC(=O)[C@@H](NC(=O)[C@H](CCCCN)NC(=O)[C@H](CO)NC(=O)[C@@H](N)CCCCN)C(C)C)C(=O)N[C@@H](Cc1ccc(N)cc1)C(=O)N[C@@H](Cc1cccc2ccccc12)C(=O)N[C@@H](Cc1ccccc1)C(=O)N[C@@H](Cc1c[nH]cn1)C(=O)N[C@@H](CCCCN)C(=O)N[C@@H](CCCCN)C(N)=O` [XMP.235] (H-KSKVGWLI[Phe(4-NH2)][1Nal]FHKK-NH2): “b (No detectable activity up to 5 μg/well)”. Same read-out and setting: to H-KKWLIQL-NH2 [XMP.325] belongs 4,135 pmol/30 mm^2 zone.

For H-KSKVGWLISLFHKK-NH2 [XMP.104], the “C. albicans pmol/30 mm^2 zone” value was above 5569 pmol/30 mm^2 zone. For H-SKVKWLIQ-NH2 [XMP.299], the “C. albicans pmol/30 mm^2 zone” value was >8,768 pmol/30 mm^2 zone. For the compound `CC[C@H](C)[C@H](NC(=O)[C@H](CC(C)C)NC(=O)[C@@H](Cc1ccc2ccccc2c1)NC(=O)CNC(=O)[C@@H](NC(=O)[C@H](CCCCN)NC(=O)[C@H](CO)NC(=O)[C@@H](N)CCCCN)C(C)C)C(=O)N[C@@H](CC(C)C)C(=O)N[C@@H](CC(C)C)C(=O)N[C@@H](Cc1c[nH]c2ccccc12)C(=O)N[C@@H](Cc1c[nH]cn1)C(=O)N[C@@H](CCCCN)C(=O)N[C@@H](CCCCN)C(N)=O` [XMP.244] (H-KSKVG[d2Nal]LILLWHKK-NH2), the “C. albicans pmol/30 mm^2 zone” value is 859 pmol/30 mm^2 zone. In the case of H-KVKWLIQL-NH2 [Peptide 300], the “Plate Assay (nmol), pure peptide activity” value is given as 0.993 nmol and the “Plate Assay (nmol), crude peptide activity” value came to 1.957 nmol. H-KWLIQLFH-NH2 [XMP.302]: the “C. albicans pmol/30 mm^2 zone” value was >5,497 pmol/30 mm^2 zone. Besides, the “C. albicans pmol/30 mm^2 zone” value (listed as XMP.302P′) was 2,070 pmol/30 mm^2 zone. With “XMP.341: PYR - PYR - 153-157 - PYR - PYR (SEQ ID NO:172) ([pGlu][pGlu]WLIQL[pGlu][pGlu]; not fully specified; printed as PYR - PYR - 153-157 - PYR - PYR)”, the “C. albicans pmol/30 mm^2 zone” value is listed as “b (No detectable activity up to 5 μg/well)”. Still for that read-out and setting: to `CC[C@H](C)[C@H](NC(=O)[C@H](CC(C)C)NC(=O)[C@H](Cc1c[nH]c2ccccc12)NC(=O)CNC(=O)[C@@H](NC(=O)[C@H](CCCCN)NC(=O)[C@H](CO)NC(=O)[C@@H](N)CCCCN)C(C)C)C(=O)N[C@@H](Cc1ccc(N)cc1)C(=O)N[C@@H](CC(C)C)C(=O)N[C@@H](Cc1c[nH]c2ccccc12)C(=O)N[C@@H](Cc1c[nH]cn1)C(=O)N[C@@H](CCCCN)C(=O)N[C@@H](CCCCN)C(N)=O` [XMP.239] (H-KSKVGWLI[Phe(4-NH2)]LWHKK-NH2) belongs >2,802 pmol/30 mm^2 zone. For H-WLIQLF-NH2 [XMP.316], the “C. albicans pmol/30 mm^2 zone” value is “b (No detectable activity up to 5 μg/well)”. Moreover, the “C. albicans pmol/30 mm^2 zone” value (listed as XMP.316P′) was “g (inactive to 7,194 pmol)”. Regarding “XMP.380: K - K - Q - L - L - L - L - K - K (SEQ ID NO:211) (KKQLLLLKK)”, the “C. albicans pmol/30 mm^2 zone” value was found to be 886 pmol/30 mm^2 zone. Take `CC[C@H](C)[C@H](NC(=O)[C@H](CC(C)C)NC(=O)[C@H](NC(=O)CNC(=O)[C@@H](NC(=O)[C@H](CCCCN)NC(=O)[C@H](CO)NC(=O)[C@@H](N)CCCCN)C(C)C)C(C)C)C(=O)N[C@@H](CCC(N)=O)C(=O)N[C@@H](CC(C)C)C(=O)N[C@@H](Cc1ccccc1)C(=O)N[C@@H](Cc1c[nH]cn1)C(=O)N[C@@H](CCCCN)C(=O)N[C@@H](CCCCN)C(N)=O` [XMP.253] (H-KSKVG[dV]LIQLFHKK-NH2): the “C. albicans pmol/30 mm^2 zone” value is 1,108 pmol/30 mm^2 zone. Still for that read-out and setting: the same measure for H-KSKVGWLIELFHKK-NH2 [XMP.263]: 1,197 pmol/30 mm^2 zone; for H-KSKVGWLINLFHKK-NH2 [XMP.262]: 984 pmol/30 mm^2 zone. With H-KKKWLIQLKKK-NH2 [XMP.350], the “C. albicans pmol/30 mm^2 zone” value is given as 129 pmol/30 mm^2 zone. Still for that read-out and setting: to `CC[C@H](C)[C@H](NC(=O)[C@H](CC(C)C)NC(=O)[C@H](Cc1c[nH]c2ccccc12)NC(=O)[C@H](Cc1ccc(N)cc1)NC(=O)[C@@H](NC(=O)[C@H](CCCCN)NC(=O)[C@H](CO)NC(=O)[C@@H](N)CCCCN)C(C)C)C(=O)N[C@@H](CCC(N)=O)C(=O)N[C@@H](Cc1cccc2ccccc12)C(=O)N[C@@H](Cc1ccccc1)C(=O)N[C@@H](Cc1c[nH]cn1)C(=O)N[C@@H](CCCCN)C(=O)N[C@@H](CCCCN)C(N)=O` [XMP.236] (H-KSKV[Phe(4-NH2)]WLIQ[1Nal]FHKK-NH2) belongs >2,631 pmol/30 mm^2 zone; to H-VKWLIQL-NH2 [XMP.307], >8,345 pmol/30 mm^2 zone; to H-KWLIQLF-NH2 [XMP.308], “b (No detectable activity up to 5 μg/well)”.

Regarding `CC[C@H](C)[C@H](NC(=O)[C@H](CC(C)C)NC(=O)[C@H](Cc1ccc2ccccc2c1)NC(=O)CNC(=O)[C@@H](NC(=O)[C@H](CCCCN)NC(=O)[C@H](CO)NC(=O)[C@@H](N)CCCCN)C(C)C)C(=O)N[C@@H](CCC(N)=O)C(=O)N[C@@H](CC(C)C)C(=O)N[C@@H](Cc1ccccc1)C(=O)N[C@@H](Cc1c[nH]cn1)C(=O)N[C@@H](CCCCN)C(=O)N[C@@H](CCCCN)C(N)=O` [XMP.130] (H-KSKVG[2Nal]LIQLFHKK-NH2), the “C. albicans pmol/30 mm^2 zone” value amounted to 1159 pmol/30 mm^2 zone. Consider H-SKVKWLI-NH2 [Peptide 305], for which the “Plate Assay (nmol), crude peptide activity” value is recorded as above 10.228 nmol. For `CC[C@H](C)[C@H](NC(=O)[C@H](CC(C)C)NC(=O)[C@H](Cc1c[nH]c2ccccc12)NC(=O)CNC(=O)[C@@H](NC(=O)[C@H](CCCCN)NC(=O)[C@H](CO)NC(=O)[C@@H](N)CCCCN)C(C)C)C(=O)N[C@@H](CCC(N)=O)C(=O)N[C@@H](CC(C)C)C(=O)N[C@@H](Cc1ccccc1)C(=O)N[C@@H](Cc1c[nH]cn1)C(=O)N[C@@H](CCCCN)C(=O)N[C@@H](Cc1cccc2ccccc12)C(N)=O` [XMP.111] (H-KSKVGWLIQLFHK[1Nal]-NH2), the “C. albicans pmol/30 mm^2 zone” value is above 2809 pmol/30 mm^2 zone.

With “H-KSKVGWLILLFHKKKSKVGWLIQLFHKK-NH2 [XMP.270]”, the “C. albicans pmol/30 mm^2 zone” value is given as above 722 pmol/30 mm^2 zone. For the compound `CC[C@H](C)[C@H](NC(=O)[C@H](CC(C)C)NC(=O)[C@H](Cc1c[nH]c2ccccc12)NC(=O)[C@H](Cc1ccc(N)cc1)NC(=O)[C@@H](NC(=O)[C@H](CCCCN)NC(=O)[C@H](CO)NC(=O)[C@@H](N)CCCCN)C(C)C)C(=O)N[C@@H](CCC(N)=O)C(=O)N[C@@H](CC(C)C)C(=O)N[C@@H](Cc1c[nH]c2ccccc12)C(=O)N[C@@H](Cc1c[nH]cn1)C(=O)N[C@@H](CCCCN)C(=O)N[C@@H](CCCCN)C(N)=O` [XMP.240] (H-KSKV[Phe(4-NH2)]WLIQLWHKK-NH2), the “C. albicans pmol/30 mm^2 zone” value was >2,802 pmol/30 mm^2 zone. Still for that read-out and setting: to H-VKWLIQLF-NH2 [XMP.301] belongs “b (No detectable activity up to 5 μg/well)”. As to `CC[C@H](C)[C@H](NC(=O)[C@H](CC(C)C)NC(=O)[C@H](Cc1c[nH]c2ccccc12)NC(=O)[C@@H](N)CCCCN)C(=O)N[C@@H](CCC(N)=O)C(=O)N[C@@H](CC(C)C)C(=O)N[C@@H](Cc1ccccc1)C(=O)N[C@@H](Cc1c[nH]cn1)C(=O)N[C@@H](CCCCN)C(N)=O` [Peptide 297], the “Plate Assay (nmol), pure peptide activity” value worked out at 0.564 nmol and the “Plate Assay (nmol), crude peptide activity” value came to 1.817 nmol. As to `CC[C@H](C)[C@H](NC(=O)[C@H](CC(C)C)NC(=O)[C@H](Cc1c[nH]c2ccccc12)NC(=O)[C@H](CCN)NC(=O)[C@@H](N)CCN)C(=O)N[C@@H](CCC(N)=O)C(=O)N[C@@H](CC(C)C)C(=O)N[C@@H](CCN)C(=O)N[C@@H](CCN)C(N)=O` [XMP.339] (H-[Dab][Dab]WLIQL[Dab][Dab]-NH2), the “C. albicans pmol/30 mm^2 zone” value is recorded as 2,878 pmol/30 mm^2 zone. In addition, the “C. albicans pmol/30 mm^2 zone” value (listed as XMP.339P′) is 2,599 pmol/30 mm^2 zone.

Regarding H-KVKWLIQLF-NH2 [Peptide 295], the “Plate Assay (nmol), pure peptide activity” value is reported as above 2.612 nmol and the “Plate Assay (nmol), crude peptide activity” value is above 1.977 nmol. Regarding H-KSKVKWLIKLFHKK-NH2 [XMP.100], the “C. albicans pmol/30 mm^2 zone” value is given as 462 pmol/30 mm^2 zone.
